# Experimental data reported in US20040198754A1, “Composition and method for appetite and craving suppression and mood enhancement” (Pro-Health, Inc., priority 2003, published 2004).
# Assay: Individual human case reports of oral theobromine tablets (appetite, cravings, mood, energy, weight, side effects), with earlier use of commercial diet products
# Type: in vivo
# Text: They lost 18 lbs., and did report having a headache. No other side effects were reported.
# No other side effects were reported.
# They lost 9 lbs. in 21 days.
# They also took Metabolife 356® made by Metabolife International Inc. which contains a caffeine-ephedrine combination.
# A person had been taking Xenadrine EFX (ephedrine free, contains synephrine) to try to stop smoking while losing weight, but with little effect on their appetite and nicotine craving. […] They discontinued use of theobromine over a weekend, and noted that the urge to smoke again became strong. […] They were also exercising, and despite quitting smoking at the same time, lost 4.5 pounds, and reported fitting into clothes that they hadn't been able to wear for several years.
# [1] = person, 500 mg. theobromine 4 times per day for 21 days
# [2] = person, 2 grams per day for 12 days
# [3] = person, 3,250 mg. tablets per day for 10 days
# [4] = person, 4, 250 mg. tablets four times per day for 21 days
# [5] = person, up to 2 grams daily for 28 days
# [6] = smoker, 750 mg. theobromine per day for three weeks
smiles,measurement,setting,value
"Cn1cnc2c1c(=O)[nH]c(=O)n2C [theobromine, 3,7-dimethylxanthine]",craving for sweets (self-reported),"person with lifelong cravings for sweets, one 250 mg. tablet per day",no craving for such sweets
same,appetite (self-reported),"person, 500 mg. of Theobromine",appetite suppression
same,energy (self-reported),"person, 500 mg. of Theobromine",good energy
same,mood (self-reported),"person, 500 mg. of Theobromine",sense of well being
same,appetite and food cravings (self-reported),[1],reduced appetite and food cravings
same,energy (self-reported),[1],increased energy without a stimulant high
same,weight lost,[1],8 lbs.
same,weight lost,"person, 750 mg. theobromine per day for three weeks, also exercising and quitting smoking",4.5 pounds
same,appetite (self-reported),[2],less appetite
same,"energy, mood and thinking (self-reported)",[2],"more energy, improved mood and clearer thinking"
same,weight loss,[2],5 pound
same,appetite (self-reported),[3],reduced appetite
same,energy (self-reported),[3],excellent energy
same,mood (self-reported),[3],euphoric calmness to their mood
same,weight lost,[3],8 lbs.
same,appetite (self-reported),[4],reduced appetite
same,mood and energy (self-reported),[4],"elevated mood, more energy"
same,weight lost,[4],18 lbs.
same,appetite (self-reported),[5],lowered appetite
same,energy or mood (self-reported),[5],no energy or mood difference
same,weight lost,"person, up to 2 grams daily, in 21 days",9 lbs.
same,appetite (self-reported),[6],reduced appetite
same,cravings for chocolate prior to menses (self-reported),[6],reduction in cravings for chocolate
same,mood (self-reported),[6],much calmer and less angry
same,urge to smoke (self-reported),[6],loss of the urge to smoke
